Results taken from patent US4273777A, “Methods of treating mammals suffering from inflammation and pain” (Laboratorios Bago S.A., priority 1980, dated 1981).

Legend:
[1] = Randall-Selitto test (analgesic activity, carrageenin inflamed foot); assay type: in vivo, mouse (Rockland); conditions: oral, 30 minutes before carrageenin; control (water) 0; doses as for tail pressure (pivaloyloxymethyl TPA ester 166 mg/kg, 66 mg/kg)
Procedure: Randall-Selitto's method: Ten male mice of Rockland strain weighing 25 g were used for each compound tested. 0.1 ml of 1% carrageenin saline suspension was injected into the subplantar region of the right foot. The test compounds were orally administered 30 minutes before the injection. At hourly intervals for 3 hours after the carrageenin injection, the pain threshold for the inflammed feet was measured determining the amount of pressure with an analgesy meter.

[2] = Tail pressure test (analgesic activity); assay type: in vivo, mouse (Rockland); conditions: oral; control (water) 0; dose mg/kg: ASA 100, pivaloyloxymethyl TPA ester 166 and 66, CPA 50, TPA 47, phthalidyl CPA ester 72, pivaloyloxymethyl CPA ester 69, xylyl anthranylates 77 (phthalidyl)/74 (pivaloyloxymethyl), TAA 50, its phthalidyl ester 73.5, pivaloyloxymethyl ester 82
Procedure: Tail pressure test: Ten male mice of Rockland strain weighing 20-25 g were used for each compound tested. The response threshold on applying pressure to the tail was determined with an analgesy meter at 15 and 60 minutes after oral administration of the test compound. The pressure at which a struggle was elicited was read.

[3] = Influence on the gastro-intestinal tract (ulceration of the gastric epithelium, pylorus ligated, Shay et al.); assay type: in vivo, rat (Sprague Dawley)
Procedure: Influence on the gastro-intestinal tract
Ten male rats of Sprague Dawley strain, weighing 200-300 g were used for each compound tested. According to the method of Shay et al. (Shay, H., Komapov. S. A., Feb. S. S., Meranir, D., Gruenstein, M., Siplet, H. Gastroenterology 5, 43, 1945), under anesthesia, the pylorus was ligated and 4 hours later test compounds were orally administered. The animal was sacrificed 1 hour after compound administration. The stomach was removed and examined for macroscopic damage. The ulceration of the gastric epithelium was evaluated by the following evaluation: 0=no hemorrhage sites; 1=some isolated hemorrhagic sites; 2=redness of the gastric epithelium; 3=1 to 5 small ulcers with a diameter smaller than 3 mm; 4=many small ulcers; 5=ulcers--greater than 3 mm; 6=perforated ulcer.

[4] = Carrageenin induced edema test (anti-inflammatory activity); parameters: species or system rat (Sprague Dawley); conditions: rat, in vivo
Procedure: Anti-inflammatory Activity (Carrageenin induced edema test)
Fifteen to twenty male rats of Sprague Dawley strain weighing 150-200 g, were employed for each compound tested. 0.1 ml of 1% carrageenin saline suspension was injected into the subplantar region of the right hind-paw. The test compounds were orally administered 30 minutes prior to the injection of carrageenin and the foot volume was determined 1, 3 and 5 hours after the injection of carrageenin. The percent swelling in the foot was obtained by comparing the volume before and after the injection of carrageenin, and the rate of inhibition in the treated animals was calculated.

[5] = oral, 1 hour after compound, score 0=no hemorrhage sites to 6=perforated ulcer, control 3.0, dose mg/kg: phenylbutazone 75, ASA 100, TPA 47, pivaloyloxymethyl TPA ester 66, CPA 150, phthalidyl CPA ester 216, pivaloyloxymethyl CPA ester 207, xylyl anthranylates 186/196, TAA 60, its esters 88/84.5
[6] = versus control (distilled water) 3.0, oral

SMILES | Relative strength, Randall-Selitto test [1] | Relative strength, Tail pressure test [2] | Evaluation (ulceration of the gastric epithelium) [3, 5] | Increase (of ulceration evaluation over control) [3, 6] | anti-inflammatory activity, in words [4] | Evaluation (ulceration of the gastric epithelium) ([3]; rat, in vivo, po) | Increase (of ulceration evaluation over control) ([3]; rat, in vivo, po)
O=C(OC1OC(=O)c2ccccc21)c1ccccc1Nc1cccc(C(F)(F)F)c1 (stereo not shown) [Phthalidyl N-(3'-trifluorotolyl) anthranylate] | 10.6 | 0.74 | 3.5 | 0.5 |  |  | 
Cc1cccc(Nc2ccccc2C(=O)OCOC(=O)C(C)(C)C)c1C [Pivaloyloxymethyl N-(2',3'-xylyl) anthranylate] |  |  | 3.4 | 0.4 |  |  | 
CC(C)(C)C(=O)OCOC(=O)c1cccnc1Nc1cccc(C(F)(F)F)c1 [Pivaloyloxymethyl 2-(3'-trifluoromethylanilino)-pyridine-3-carboxylate] |  |  | 3.2 | 0.2 | act as anti-inflammatory agent more than as antinociceptive agents |  | 
CC(C)(C)C(=O)OCOC(=O)c1ccccc1Nc1cccc(C(F)(F)F)c1 [Pivaloyloxymethyl N-(3'-trifluorotolyl) anthranylate] |  |  | 3.6 | 0.6 |  |  | 
Cc1c(Cl)cccc1Nc1ncccc1C(=O)OC1OC(=O)c2ccccc21 (stereo not shown) [Phthalydil 2(3'-chloro-2'-methylanilino)pyridine 3-carboxylate] |  |  | 3.6 | 0.6 |  |  | 
CCCCC1C(=O)N(c2ccccc2)N(c2ccccc2)C1=O [Phenylbutazone, reference compound] |  |  |  |  |  | 5.5 | 2.5
O=C(O)c1cccnc1Nc1cccc(C(F)(F)F)c1 [2-(3'-trifluoromethyl-anilino)-3-pyridinecarboxylic acid, reference compound] |  |  | 3.9 | 0.9 |  |  | 
Cc1c(Cl)cccc1Nc1ncccc1C(=O)OCOC(=O)C(C)(C)C [Pivaloyloxymethyl 2-(3'-chloro-2'-methylanilino)-pyridine-3-carboxylate] |  |  | 3.0 |  |  |  | 
CC(=O)Oc1ccccc1C(=O)O [Acetylsalicylic acid (ASA), Acetylsalicylic acid, reference compound] |  |  |  |  |  | 4.1 | 1.1
Cc1cccc(Nc2ccccc2C(=O)OC2OC(=O)c3ccccc32)c1C (stereo not shown) [Phthalidyl N-(2',3'-xylyl) anthranylate] | 1.37 | 0.56 | 3.3 | 0.3 |  |  | 
O=C(O)c1ccccc1Nc1cccc(C(F)(F)F)c1 [N-(3'-trifluorotolyl)-anthranylic acid, reference compound] | 5.3 | 0.5 | 4.9 | 1.9 |  |  | 
